US12584919B2, “Enhancing anti-tumor response in melanoma cells with defective sting signaling” (H. Lee Moffitt Cancer Center and Research Institute, Inc., priority 2018, dated 2026)
Entries after “also recorded” stand apart in the source; their conditions may differ.

Legend:
[1] = system: human melanoma cell lines (WM39, WM3629, 526-MEL) co-cultured with HLA-matched TIL; test: Co-culture assay of melanoma cells with HLA-matched TIL, cytokine release by ELISA
Protocol: TIL production of IFN-γ and ^51Cr release was assessed for cytotoxicity.
After 24 hours of incubation at 37° C. in a humidified CO2 incubator, the supernatant was harvested for detection of IFN-γ release using enzyme-linked immunosorbent assay (Human IFN-γ Quantikine ELISA Kit, R&D Systems). For the MHC class I blocking assay, melanoma cells were incubated with W6/32 (anti-HLA-A,B,C monoclonal antibody, Biolegend) at a final concentration of 50 μg/mL for 1 hour at 37° C. prior to the addition of TIL.

[2] = system: human melanoma cell lines (WM39, WM3629, 526-MEL) as targets, TIL 195 as effector cells; test: 51Cr release cytotoxicity assay, lysis of melanoma targets by TIL
Protocol: After 4 hours, supernatant was harvested and measured in Trilux (PerkinElmer). Each point represented the average of quadruplicate wells and percentage of specific lysis was calculated by: (experimental release—minimum release)/(maximum release-minimum release)×100.

[3] = system: human melanoma cell lines; test: Flow cytometry of MHC class I (HLA-A.B.C) surface expression; type: cell-based
Protocol: DAPI (Sigma-Aldrich) was used as a viability dye. Sample acquisition was performed on an LSR II flow cytometer (BD Biosciences), and the data were analyzed using FlowJo software (Tree Star).

[4] = system: human melanoma cell lines; test: IRF3 phosphorylation by immunoblot after STING agonist stimulation; type: cell-based
Excerpt: Proteins were extracted with RIPA buffer (ThermoFisher Scientific) containing protease inhibitors (Thermo Scientific). Protein extracts from NK92, a natural killer cell line, was used as a positive control for the expression of STING and cGAS (Souza-Fonseca-Guimaraes F, et al. J Biol Chem. 2013 288:10715-21). Equal amounts of proteins were resolved on SDS-PAGE gels (Bio-Rad) and transferred to polyvinylidene fluoride (PVDF) membranes (Bio-Rad). After blocking with 5% non-fat dry milk, membranes were incubated with antibodies specific for STING, cGAS, p-IRF3, IRF3 (all from Cell Signaling) and β-actin (Sigma Aldrich). Following incubation with appropriate secondary antibodies, bands were visualized using an enhanced chemiluminescence detection system.

[5] = system: human melanoma cell lines; test: CXCL10 and IFN-β release (ELISA) after STING agonist stimulation; type: cell-based
[6] = system: melanoma cell lines lacking STING; test: STING/cGAS expression by immunoblot after demethylating agent treatment
Excerpt: STING and cGAS expression were examined in a panel of human melanoma cell lines by immunoblot.

[7] = system: melanoma cell lines lacking STING; test: CXCL-10 induction in 5AZADC-treated melanoma cells after STING agonist stimulation; conditions: 5AZADC-treated cell lines lacking STING, then stimulated with the STING agonist 2′3′-cGAMP
[8] = WM9 and WM39 cell lines, 2′3′-cGAMP stimulation

## Nc1nc2c(ncn2[C@@H]2O[C@@H]3COP(=O)(O)O[C@H]4[C@@H](O)[C@H](n5cnc6c(N)ncnc65)O[C@@H]4COP(=O)(O)O[C@@H]2[C@@H]3O)c(=O)[nH]1 [2′3′-cGAMP, 2′3′-cyclic-GMP-AMP]
[1]; 526-MEL / TIL 19 co-culture
  IFN-γ secretion: did not induce any increased IFN-γ secretion
[1]; 526-MEL / TIL 195 co-cultures
  IFN-γ release: no increase in IFN-γ release
[1]; Example 2, STING-positive cell lines responding strongly, cultured with HLA-matched TILs, p<0.01
  increase in IFN-γ secretion: ≤ 15 fold
[1]; MART-1 pulsed WM39 / TIL 195 co-culture, p<0.001
  IFN-γ secretion by TIL: significantly increased
[1]; MART-1 pulsed WM39 with two additional HLA-A2 TIL, p<0.01 vs untreated co-cultures
  IFN-γ production by TIL: higher levels of IFN-γ production
[1]; WM39 / TIL 19 co-cultures, p<0.001
  IFN-γ release, higher than the untreated group: 24 fold
[1]; WM39 / TIL 195 and sh-control / TIL 195 co-cultures, P<0.05
  higher IFN-γ release: more than 25 fold
[1]; WM39 / TIL 195 co-culture groups with 2′3′-cGAMP
  IFN-β in co-culture supernatants: Induction of IFN-β
[1]; WM39 / TIL 195 co-culture, with vs without 2′3′-cGAMP
  IFN-γ secretion by TIL: significantly enhanced
[1]; WM3629 / TIL 195 co-cultures, p<0.01
  IFN-γ release: increased
[1]; control group containing TIL with 2′3′-cGAMP, no tumor cells
  IFN-β induction: not observed
[1]; sh-STING (STING knockdown WM39) / TIL 195 co-cultures
  IFN-γ induction: no increase in IFN-γ induction
[2]; 526-MEL cells
  lysis by TIL 195 (lytic units): did not induce any increase in lysis
[2]; 526-MEL targets, defective in STING signaling
  specific lysis by TIL 195: did not alter their specific lysis
[2]; Example 2, STING-responsive cell lines with HLA-matched TILs, p<0.05
  augmentation of TIL cytotoxicity: > 2 fold
[2]; WM39 and MART-1-pulsed WM39 cells vs their controls
  increase in lytic potential of TIL 195 (lytic units): > 10 fold
[2]; WM39 and MART-1 pulsed WM39 targets, p<0.05
  increase in lysis by TIL 195: > 2 fold
[2]; WM39 and sh-control targets
  cytolytic activity of TIL 195: increased cytolytic activity
[2]; WM39 target cells with or without 2′3′-cGAMP in the absence of TIL
  cytotoxicity of the STING agonist alone: did not result in any major cytotoxicity
[2]; WM3629 cells
  lysis by TIL 195 (lytic units): greater lysis
[2]; WM3629 targets, p<0.05 vs controls
  cytotoxicity (lysis by TIL 195): Increased
[2]; sh-STING (STING knockdown WM39) targets
  cytolytic activity of TIL 195: complete blockade of this response
[3]; 1205Lu, WM266-4, WM2032 and 526-MEL cell lines with impaired STING signaling
  expression of MHC class I: no significant changes
[3]; Example 1, human melanoma cell lines (FIG. 14)
  MHC-I/HLA-A.B.C expression: upregulation of MHC I
[3]; WM39 and sh-control cells, p<0.01
  higher surface expression of MHC class I: more than 2.5 fold
[3]; sh-STING (STING knockdown WM39) cells
  surface expression of MHC class I: did not cause any increase in MHC class I
[4]; 5 STING-positive cell lines (WM164, WM9, WM39, A375, WM1366), 2′3′-cGAMP 10 μg/ml with Lipofectamine, 4 h
  phosphorylation of IRF3: 4 of 5 STING-positive cell lines
[4]; WM2032 (STING-negative) cell line, 2′3′-cGAMP stimulated
  phosphorylation of IRF3: not detected
[5]; 526-MEL (HLA-A2) cell line
  response to 2′3′-cGAMP stimulation (p-IRF3, CXCL10, IFN-β): did not respond
[5]; [8]
  CXCL10 induction in cell culture supernatants: detectable levels
  IFN-β induction in cell culture supernatants: detectable levels

## Nc1ncn([C@H]2C[C@H](O)[C@@H](CO)O2)c(=O)n1 [5AZADC, 5-aza-2′-deoxycytidine]
[6]; 5AZADC-treated melanoma cell lines lacking STING
  STING expression: Partial induction of STING expression; also recorded: reconstitution of STING expression
[6]; A375, G361, MeWO, SK-MEL-5 and other human melanoma cell lines with and without 5AZADC (FIG. 7)
  STING and cGAS expression: partially recapitulated
[7]
  CXCL-10 induction: induction of CXCL-10; also recorded: production of CXCL-10; also recorded: STING-dependent CXCL-10 induction
